The assay deals with XBP1s-luc 293 LUC. Put plainly: cellular PD assay, XBP1s-LUC reporter (Example 903). Format: cell-based. The following applies: read-out: XBP1s-luc 293 LUC (IC50). In short, it runs like this: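 A luciferase fusion, in frame and expressed only when the XBP1 transcript is spliced, served as the readout of cellular IRE1α activity in an XBP1-Luc reporter line.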

Structures can show the parent of a compound that is named as a salt. Where two headings read alike, the source gives them in different places.

As for `Cc1ccc2c(NS(=O)(=O)Cc3ccccc3)c(F)ccc2c1Oc1ncccc1-c1ccnc(N[C@H]2CCCNC2)n1` [Example 283, (S)—N-(2-Fluoro-6-methyl-5-((3-(2-(piperidin-3-ylamino)pyrimidin-4-yl)pyridin-2-yl)oxy)naphthalen-1-yl)-1-phenylmethanesulfonamide], the IC50 (Table 1) stood at 2.96 nM. Still for that read-out and setting: next, `Cc1ccc2c(NS(=O)(=O)Cc3ccc(F)cc3)cccc2c1Oc1ncccc1-c1ccnc(N[C@H]2CCCNC2)n1` [Example 150, (S)-1-(4-Fluorophenyl)-N-(6-methyl-5-((3-(2-(piperidin-3-ylamino)pyrimidin-4-yl)pyridin-2-yl)oxy)naphthalen-1-yl)methanesulfonamide]: 25 nM. Turning to `Cc1ccc2c(N[C@H]3CCC[C@@H]3O)cccc2c1Oc1ncccc1-c1ccnc(N[C@H]2CCCNC2)n1` (single isomer, unassigned) [Example 396, hydrochloride], the IC50 (Table 2) stood at 270 nM. As to `Cc1ccc2c(NS(=O)(=O)Cc3ccccn3)c(F)ccc2c1Oc1ncccc1-c1ccnc(N[C@H]2CCCNC2)n1` [Example 494, (S)—N-(2-Fluoro-6-methyl-5-((3-(2-(piperidin-3-ylamino)pyrimidin-4-yl)pyridin-2-yl)oxy)naphthalen-1-yl)-1-(pyridin-2-yl)methanesulfonamide hydrochloride], the IC50 (Table 2) amounted to 12.5 nM. As to `Cc1ccc2c(NS(=O)(=O)N3CCCC3)c(F)ccc2c1Oc1ncccc1-c1ccnc(N[C@H]2CCCNC2)n1` [Example 428, N-[2-Fluoro-6-methyl-5-[[3-[2-[[(3S)-3-piperidyl]amino]pyrimidin-4-yl]-2-pyridyl]oxy]-1-naphthyl]pyrrolidine-1-sulfonamide hydrochloride], the IC50 (Table 2) was found to be 28 nM. For the compound `Cc1ccc2c(N3CCC4(CCCCC4)C3=O)cccc2c1Oc1ncccc1-c1ccnc(N[C@H]2CCCNC2)n1` [Example 308, (S)-2-(6-Methyl-5-((3-(2-(piperidin-3-ylamino)pyrimidin-4-yl)pyridin-2-yl)oxy)naphthalen-1-yl)-2-azaspiro[4.5]decan-1-one], where the note is “Table 1”, the IC50 worked out at 211 nM.

Regarding `CCC(F)(F)CS(=O)(=O)Nc1c(F)ccc2c(Oc3ncccc3-c3ccnc(N[C@@H]4CNC[C@H](C)C4)n3)c(C)ccc12` [Example 486, 2,2-Difluoro-N-[2-fluoro-6-methyl-5-[[3-[2-[[(3S,5R)-5-methyl-3-piperidyl]amino]pyrimidin-4-yl]-2-pyridyl]oxy]-1-naphthyl]butane-1-sulfonamide hydrochloride], under “Table 2”, the IC50 was found to be 3 nM. Still for that read-out and setting: the value for `Cc1ccc2c(NS(=O)(=O)C[C@H]3CC34CC4)c(F)ccc2c1Oc1ncccc1-c1ccnc(N[C@H]2CCCNC2)n1` (single isomer, unassigned) [Example 474, hydrochloride] was 52 nM. On to `COC(=O)CNc1cccc2c(Oc3ncccc3-c3ccnc(N[C@H]4CCCNC4)n3)c(C)ccc12` [Example 314, (S)-Methyl 2-((6-methyl-5-((3-(2-(piperidin-3-ylamino)pyrimidin-4-yl)pyridin-2-yl)oxy)naphthalen-1-yl)amino)acetate], for which the IC50 (Table 1) turned out to be 208 nM.

Regarding `Cc1ccc2c(NS(=O)(=O)Cc3ccccc3)c(F)ccc2c1Oc1ncccc1-c1ccnc(N[C@@H]2CNC[C@H](C)C2)n1` [Example 378, N-(2-Fluoro-6-methyl-5-((3-(2-(((3S,5R)-5-methylpiperidin-3-yl)amino)pyrimidin-4-yl)pyridin-2-yl)oxy)naphthalen-1-yl)-1-phenylmethanesulfonamide], the IC50 (Table 1) came out at 1.41 nM. The same measure, in the same setting: next, `Cc1ccc2c(NS(=O)(=O)Cc3cccnc3)cccc2c1Oc1ncccc1-c1ccnc(N[C@H]2CCCNC2)n1` [Example 125, (S)—N-(6-Methyl-5-((3-(2-(piperidin-3-ylamino)pyrimidin-4-yl)pyridin-2-yl)oxy)naphthalen-1-yl)-1-(pyridin-3-yl)methanesulfonamide hydrochloride]: 318 nM; `Cc1ccc2c(NS(=O)(=O)CCC(F)(F)F)c(F)ccc2c1Oc1ncccc1-c1ccnc(N[C@H]2CCCNC2)n1` [Example 276, (S)-3,3,3-Trifluoro-N-(2-fluoro-6-methyl-5-((3-(2-(piperidin-3-ylamino)pyrimidin-4-yl)pyridin-2-yl)oxy)naphthalen-1-yl)propane-1-sulfonamide hydrochloride]: 44.1 nM; `Cc1ccc2c(NS(=O)(=O)[C@H](C)c3ccccc3)cccc2c1Oc1ncccc1-c1ccnc(N[C@H]2CCCNC2)n1` [Example 215, (R)—N-(6-methyl-5-((3-(2-((S)-piperidin-3-ylamino)pyrimidin-4-yl)pyridin-2-yl)oxy)naphthalen-1-yl)-1-phenylethanesulfonamide]: 211 nM. Same read-out and setting: the value for `Cc1ccc2c(NC(=O)CC(C)C)cccc2c1Oc1ncccc1-c1ccnc(N[C@H]2CCCNC2)n1` [Example 188, (S)-3-Methyl-N-(6-methyl-5-((3-(2-(piperidin-3-ylamino)pyrimidin-4-yl)pyridin-2-yl)oxy)naphthalen-1-yl)butanamide] was 141 nM; that for `Cc1ccc2c(NCCC3CC3)cccc2c1Oc1ncccc1-c1ccnc(N[C@H]2CCCNC2)n1` [Example 224, (S)-4-(2-((5-((2-Cyclopropylethyl)amino)-2-methylnaphthalen-1-yl)oxy)pyridin-3-yl)-N-(piperidin-3-yl)pyrimidin-2-amine] was 177 nM; that for `Cc1ccc2c(N3CCCC(C)C3=O)cccc2c1Oc1ncccc1-c1ccnc(N[C@H]2CCCNC2)n1` (mixture of isomers) [Example 354, 3-Methyl-1-(6-methyl-5-((3-(2-((S)-piperidin-3-ylamino)pyrimidin-4-yl)pyridin-2-yl)oxy)naphthalen-1-yl)piperidin-2-one] was 318 nM. Turning to `Cc1ccc2c(NC(=O)C[C@@H](O)C(F)(F)F)cccc2c1Oc1ncccc1-c1ccnc(N[C@H]2CCCNC2)n1` (single isomer, unassigned) [Example 436], under “Table 2”, the IC50 is 75 nM. As for `Cc1ccc2c(NCCC#N)cccc2c1Oc1ncccc1-c1ccnc(N[C@H]2CCCNC2)n1` [Example 329, (S)-3-((6-Methyl-5-((3-(2-(piperidin-3-ylamino)pyrimidin-4-yl)pyridin-2-yl)oxy)naphthalen-1-yl)amino)propanenitrile], the IC50 (Table 1) amounted to 123 nM.

For `Cc1ccc2c(NS(=O)(=O)CC3CCOCC3)cccc2c1Oc1ncccc1-c1ccnc(N[C@H]2CCCNC2)n1` [Example 133, (S)—N-(6-Methyl-5-((3-(2-(piperidin-3-ylamino)pyrimidin-4-yl)pyridin-2-yl)oxy)naphthalen-1-yl)-1-(tetrahydro-2H-pyran-4-yl)methanesulfonamide hydrochloride], the IC50 (Table 1) amounted to 158 nM. Same read-out and setting: next, `Cc1ccc2c(NS(=O)(=O)CCC3CC3)cccc2c1Oc1ncccc1-c1ccnc(N[C@H]2CCCNC2)n1` [Example 129, (S)-2-Cyclopropyl-N-(6-methyl-5-((3-(2-(piperidin-3-ylamino)pyrimidin-4-yl)pyridin-2-yl)oxy)naphthalen-1-yl)ethanesulfonamide]: 301 nM; `Cc1ccc2c(NCc3ccccn3)c(F)ccc2c1Oc1ncccc1-c1ccnc(N[C@H]2CCCNC2)n1` [Example 296, (S)-4-(2-((6-Fluoro-2-methyl-5-((pyridin-2-ylmethyl)amino)naphthalen-1-yl)oxy)pyridin-3-yl)-N-(piperidin-3-yl)pyrimidin-2-amine]: 220 nM.

For `Cc1ccc2c(NC(=O)CC3CCCCC3)c(F)ccc2c1Oc1ncccc1-c1ccnc(N[C@@H]2CNC[C@H](C)C2)n1` [Example 366, 2-Cyclohexyl-N-(2-fluoro-6-methyl-5-((3-(2-(((3S,5R)-5-methylpiperidin-3-yl)amino)pyrimidin-4-yl)pyridin-2-yl)oxy)naphthalen-1-yl)acetamide], under “Table 1”, the IC50 was determined as 101 nM. For the compound `Cc1ccc2c(NC(=O)C3(CF)CC3)cccc2c1Oc1ncccc1-c1ccnc(N[C@H]2CCCNC2)n1` [Example 242, (S)-1-(Fluoromethyl)-N-(6-methyl-5-((3-(2-(piperidin-3-ylamino)pyrimidin-4-yl)pyridin-2-yl)oxy)naphthalen-1-yl)cyclopropane-1-carboxamide], under “Table 1”, the IC50 was 361 nM. Regarding `Cc1ccc2c(NC(=O)[C@H]3CC34CCCC4)cccc2c1Oc1ncccc1-c1ccnc(N[C@H]2CCCNC2)n1` (single isomer, unassigned) [Example 253], the IC50 (Table 1) worked out at 352 nM.

For `Cc1ccc2c(NC(=O)C3CC34CC4)c(F)ccc2c1Oc1ncccc1-c1ccnc(N[C@H]2CCCNC2)n1` (stereo partly drawn) [Example 465, N-(2-Fluoro-6-methyl-5-((3-(2-(((S)-piperidin-3-yl)amino)pyrimidin-4-yl)pyridin-2-yl)oxy)naphthalen-1-yl)spiro[2.2]pentane-1-carboxamide], the IC50 (Table 2) was determined as 57 nM. As for `Cc1ccc2c(NC[C@H](O)C(F)(F)F)cccc2c1Oc1ncccc1-c1ccnc(N[C@H]2CCCNC2)n1` [Example 299], the IC50 (Table 1) was 8.58 nM.

Consider `Cc1cc(CNc2cccc3c(Oc4ncccc4-c4ccnc(N[C@H]5CCCNC5)n4)c(C)ccc23)no1` [Example 280, (S)-4-(2-((2-Methyl-5-(((5-methylisoxazol-3-yl)methyl)amino)naphthalen-1-yl)oxy)pyridin-3-yl)-N-(piperidin-3-yl)pyrimidin-2-amine], for which the IC50 (Table 1) amounted to 134 nM.

Consider `Cc1ccc2c(NS(=O)(=O)Cc3ccccn3)cccc2c1Oc1ncccc1-c1ccnc(N[C@@H]2CNC[C@H](F)C2)n1` [Example 225, N-(5-((3-(2-(((3S,5R)-5-Fluoropiperidin-3-yl)amino)pyrimidin-4-yl)pyridin-2-yl)oxy)-6-methylnaphthalen-1-yl)-1-(pyridin-2-yl)methanesulfonamide], for which the IC50 (Table 1) came to 467 nM. The same measure, in the same setting: the value for `Cc1ccc2c(NCc3ccccn3)cccc2c1Oc1ncccc1-c1ccnc(N[C@H]2CCCNC2)n1` [Example 261, (S)-4-(2-((2-Methyl-5-((pyridin-2-ylmethyl)amino)naphthalen-1-yl)oxy)pyridin-3-yl)-N-(piperidin-3-yl)pyrimidin-2-amine] was 220 nM; that for `Cc1ccc2c(NC(=O)[C@@H]3CC34CC4)cccc2c1Oc1ncccc1-c1ccnc(N[C@H]2CCCNC2)n1` (single isomer, unassigned) [Example 218] was 174 nM.

These data come from US10968203B2, “Pyrimidinyl-pyridyloxy-naphthyl compounds and methods of treating IRE1-related diseases and disorders” (Genentech, Inc., priority 2017, dated 2021).
